From ChEMBL document CHEMBL1649429, “Novel plasmid-encoded ceftazidime-hydrolyzing CTX-M-53 extended-spectrum beta-lactamase from Salmonella enterica serotypes Westhampton and Senftenberg” (Antimicrob Agents Chemother, 2009)
Values after ≈ are worked out from the molar mass of the structure shown.

What was measured:
[1] = Antimicrobial activity against Salmonella enterica serotype Westhampton isolate 04CEB8273SAL expressing CTX-M-53 gene […]; assay type: functional, Salmonella enterica subsp. enterica serovar Westhampton
[2] = Antimicrobial activity against Salmonella enterica serotype Westhampton isolate 04CEB8273SAL expressing CTX-M-53 gene […] in presence of Tazobactam; assay type: functional, Salmonella enterica subsp. enterica serovar Westhampton
Escherichia coli [3] = assay: Antimicrobial activity against Escherichia coli DH10B harboring natural plasmid pWES-1 carrying CTX-M-53 gene […]; assay type: functional; conditions: K-12 DH10B
Escherichia coli [4] = assay: Antimicrobial activity against Escherichia coli DH10B harboring natural plasmid pWES-1 carrying CTX-M-53 gene […] in presence of Tazobactam; assay type: functional; conditions: K-12 DH10B
Escherichia coli [5] = assay: Antimicrobial activity against Escherichia coli DH5[alpha] harboring recombinant plasmid carrying CTX-M-53 gene by disk diffusion method; assay type: functional
Escherichia coli [6] = assay: Antimicrobial activity against Escherichia coli DH5[alpha] harboring recombinant plasmid carrying CTX-M-53 gene […] in presence of Tazobactam; assay type: functional
Escherichia coli [7] = assay: Antimicrobial activity against Escherichia coli DH5[alpha] harboring phagemid pBK-CMV […]; assay type: functional
Escherichia coli [8] = assay: Antimicrobial activity against Escherichia coli DH5[alpha] harboring phagemid pBK-CMV […] in presence of Tazobactam; assay type: functional
Escherichia coli [9] = assay: Antimicrobial activity against Escherichia coli DH10B by disk diffusion method; assay type: functional; conditions: K-12 DH10B
Escherichia coli [10] = assay: Antimicrobial activity against Escherichia coli DH10B […] in presence of Tazobactam; assay type: functional; conditions: K-12 DH10B
Escherichia coli [11] = assay: Antimicrobial activity against Escherichia coli ATCC 25922 by disk diffusion method; assay type: functional
Escherichia coli [12] = assay: Antimicrobial activity against Escherichia coli ATCC 25922 […] in presence of Tazobactam; assay type: functional
[13] = Antimicrobial activity against Salmonella enterica serotype Westhampton isolate 04CEB8273SAL expressing CTX-M-53 gene […] in presence of clavulanic acid; assay type: functional, Salmonella enterica subsp. enterica serovar Westhampton
Escherichia coli [14] = assay: Antimicrobial activity against Escherichia coli DH10B harboring natural plasmid pWES-1 carrying CTX-M-53 gene […] in presence of clavulanic acid; assay type: functional; conditions: K-12 DH10B
Escherichia coli [15] = assay: Antimicrobial activity against Escherichia coli DH5[alpha] harboring recombinant plasmid carrying CTX-M-53 gene […] in presence of clavulanic acid; assay type: functional
Escherichia coli [16] = assay: Antimicrobial activity against Escherichia coli DH5[alpha] harboring phagemid pBK-CMV […] in presence of clavulanic acid; assay type: functional
Escherichia coli [17] = assay: Antimicrobial activity against Escherichia coli DH10B […] in presence of clavulanic acid; assay type: functional; conditions: K-12 DH10B
Escherichia coli [18] = assay: Antimicrobial activity against Escherichia coli ATCC 25922 […] in presence of clavulanic acid; assay type: functional
[19] = Antimicrobial activity against Salmonella enterica serotype Westhampton isolate 04CEB8273SAL CTX-M-53 gene by Etest in presence of clavulanic acid; assay type: functional, Salmonella enterica subsp. enterica serovar Westhampton
Escherichia coli [20] = assay: Antimicrobial activity against Escherichia coli DH10B harboring natural plasmid pWES-1 carrying CTX-M-53 gene by Etest in presence of clavulanic acid; assay type: functional; conditions: K-12 DH10B
Escherichia coli [21] = assay: Antimicrobial activity against Escherichia coli DH5[alpha] harboring recombinant plasmid carrying CTX-M-53 gene by Etest in presence of clavulanic acid; assay type: functional
Escherichia coli [22] = assay: Antimicrobial activity against Escherichia coli DH5[alpha] harboring phagemid pBK-CMV by Etest in presence of clavulanic acid; assay type: functional
Escherichia coli [23] = assay: Antimicrobial activity against Escherichia coli DH10B by Etest in presence of clavulanic acid; assay type: functional; conditions: K-12 DH10B
Escherichia coli [24] = assay: Antimicrobial activity against Escherichia coli ATCC 25922 by Etest in presence of clavulanic acid; assay type: functional
[25] = Antimicrobial activity against Salmonella enterica serotype Westhampton isolate 04CEB8273SAL expressing CTX-M-53 gene by Etest; assay type: functional, Salmonella enterica subsp. enterica serovar Westhampton
Escherichia coli [26] = assay: Antimicrobial activity against Escherichia coli DH5[alpha] harboring phagemid pBK-CMV by Etest; assay type: functional
Escherichia coli [27] = assay: Antimicrobial activity against Escherichia coli DH10B by Etest; assay type: functional; conditions: K-12 DH10B
Escherichia coli [28] = assay: Antimicrobial activity against Escherichia coli ATCC 25922 by Etest; assay type: functional

SMILES	MIC [1]	MIC (Escherichia coli [3])	MIC (Escherichia coli [5])	MIC (Escherichia coli [7])	MIC (Escherichia coli [9])	MIC (Escherichia coli [11])	also measured
C[C@@H](O)[C@H]1C(=O)N2C(C(=O)O)=C(SCCNC=N)C[C@H]12 [IMIPENEM ANHYDROUS]	0.5 µg/mL (≈ 1.67 µM)	–	–	–	–	–	–
CCN1CCN(C(=O)N[C@@H](C(=O)N[C@@H]2C(=O)N3[C@@H]2SC(C)(C)[C@@H]3C(=O)O)c2ccccc2)C(=O)C1=O [PIPERACILLIN]	> 256 µg/mL	> 256 µg/mL	> 256 µg/mL	1 µg/mL (≈ 1.93 µM)	2 µg/mL (≈ 3.86 µM)	2 µg/mL (≈ 3.86 µM)	MIC [2]: 16 µg/mL; MIC (Escherichia coli [4]): 4 µg/mL; MIC (Escherichia coli [6]): 2 µg/mL; MIC (Escherichia coli [8]): 1 µg/mL; MIC (Escherichia coli [10]): 4 µg/mL; MIC (Escherichia coli [12]): 2 µg/mL
CC1(C)S[C@@H]2[C@H](NC(=O)[C@H](N)c3ccc(O)cc3)C(=O)N2[C@H]1C(=O)O [AMOXICILLIN]	–	–	–	–	–	–	MIC [13]: 8 µg/mL; MIC (Escherichia coli [14]): 8 µg/mL; MIC (Escherichia coli [15]): 8 µg/mL; MIC (Escherichia coli [16]): 4 µg/mL; MIC (Escherichia coli [17]): 8 µg/mL; MIC (Escherichia coli [18]): 8 µg/mL
CO[C@@]1(NC(=O)Cc2cccs2)C(=O)N2C(C(=O)O)=C(COC(N)=O)CS[C@@H]21 [CEFOXITIN]	8 µg/mL (≈ 18.7 µM)	4 µg/mL (≈ 9.36 µM)	4 µg/mL	2 µg/mL (≈ 4.68 µM)	4 µg/mL (≈ 9.36 µM)	2 µg/mL (≈ 4.68 µM)	–
CO/N=C(\C(=O)N[C@@H]1C(=O)N2C(C(=O)O)=C(COC(C)=O)CS[C@H]12)c1csc(N)n1 [CEFOTAXIME]	–	–	–	–	–	–	MIC [19]: 1 µg/mL; MIC (Escherichia coli [20]): 0.125 µg/mL; MIC (Escherichia coli [21]): 0.06 µg/mL; MIC (Escherichia coli [22]): < 0.06 µg/mL; MIC (Escherichia coli [23]): 0.125 µg/mL; MIC (Escherichia coli [24]): 0.06 µg/mL
CC(C)(O/N=C(\C(=O)N[C@@H]1C(=O)N2C(C(=O)[O-])=C(C[n+]3ccccc3)CS[C@H]12)c1csc(N)n1)C(=O)O [CEFTAZIDIME]	> 256 µg/mL	64 µg/mL (≈ 117 µM)	64 µg/mL	0.125 µg/mL (≈ 0.229 µM)	0.5 µg/mL (≈ 0.915 µM)	0.25 µg/mL (≈ 0.457 µM)	MIC [13]: 2 µg/mL; MIC (Escherichia coli [14]): 0.5 µg/mL; MIC (Escherichia coli [15]): 0.125 µg/mL; MIC (Escherichia coli [16]): 0.125 µg/mL; MIC (Escherichia coli [17]): 0.5 µg/mL; MIC (Escherichia coli [18]): 0.125 µg/mL
CC1(C)S[C@@H]2[C@H](NC(=O)[C@H](C(=O)O)c3ccsc3)C(=O)N2[C@H]1C(=O)O [TICARCILLIN]	> 256 µg/mL	> 256 µg/mL	> 256 µg/mL	2 µg/mL (≈ 5.2 µM)	8 µg/mL (≈ 20.8 µM)	8 µg/mL (≈ 20.8 µM)	MIC [13]: 128 µg/mL; MIC (Escherichia coli [14]): 32 µg/mL; MIC (Escherichia coli [15]): 32 µg/mL; MIC (Escherichia coli [16]): 2 µg/mL; MIC (Escherichia coli [17]): 2 µg/mL; MIC (Escherichia coli [18]): 4 µg/mL
CO/N=C(\C(=O)N[C@@H]1C(=O)N2C(C(=O)[O-])=C(C[N+]3(C)CCCC3)CS[C@H]12)c1csc(N)n1	> 32 µg/mL	32 µg/mL (≈ 66.6 µM)	> 32 µg/mL	–	0.125 µg/mL (≈ 0.26 µM)	–	–
CC1(C)S[C@@H]2[C@H](NC(=O)[C@H](N)c3ccccc3)C(=O)N2[C@H]1C(=O)O [AMPICILLIN]	> 256 µg/mL	> 256 µg/mL	> 256 µg/mL	–	4 µg/mL (≈ 11.4 µM)	4 µg/mL (≈ 11.4 µM)	–
C[C@H]1[C@H](NC(=O)/C(=N\OC(C)(C)C(=O)O)c2csc(N)n2)C(=O)N1S(=O)(=O)O [AZTREONAM]	> 256 µg/mL	128 µg/mL (≈ 294 µM)	128 µg/mL	< 0.06 µg/mL	0.25 µg/mL (≈ 0.574 µM)	0.06 µg/mL (≈ 0.138 µM)	–
CO/N=C(\C(=O)N[C@@H]1C(=O)N2C(C(=O)O)=C(CSc3nc(=O)c(O)nn3C)CS[C@H]12)c1csc(N)n1 [CEFTRIAXONE]	–	–	–	–	–	–	MIC [25]: > 256 µg/mL; MIC (Escherichia coli [26]): < 0.06 µg/mL; MIC (Escherichia coli [27]): 0.125 µg/mL (≈ 0.225 µM); MIC (Escherichia coli [28]): 0.06 µg/mL (≈ 0.108 µM)
